{"source": "patent EP1879602B1", "about": "“USE OF CACAO POLYPHENOLS FOR CONTROLLING SKIN PIGMENTATION” (priority 2005, dated 2006)", "system": "synthèse de la mélanine", "assay": "Intracellular melanin assay by spectrometry at 475 nm on reconstituted epidermis (Skinetic®) co-cultured with melanocytes", "assay_type": "cell-based, humaine", "conditions": "positive control, concentration not given", "from_the_text": "L'activité sur la pigmentation (effet dépigmentant et effet pigmentant) a été étudiée à travers • l'évaluation de l'activité de la tyrosinase • l'évaluation de la synthèse de la mélanine (étude qualitative de la mélanine intracellulaire par spectrométrie à 475 nm)\nL'étude a été faite sur des épidermes reconstitués (Skinetic®). Des kératinocytes d'origine humaine sont cultivés dans un milieu défini (MCDB 153 modifié) et supplémentés. Les cellules sont cultivées pendant 10 jours à l'interface air/liquide, le milieu de culture étant changé tous les deux jours.\nLes épidermes ainsi formés sont mis en co-culture avec des mélanocytes de phototypes II, IV et VI sur des filtres en polycarbonate. L'étude est réalisée entre le 11^ème et le 17^ème jour de la culture.\nL'essai est conduit en triplicate après 3 jours de contact.\nL'évaluation de la synthèse de la mélanine intracellulaire (étude qualitative) a été effectuée comme indiqué ci-dessus par spectrométrie à 475 nm après digestion des explants de peau humaine puis dissolution dans NaOH 1N et du diméthyl sulfoxyde pendant 30 minutes.", "data": [{"smiles": "O=c1cc(CO)occ1O", "note": "[acide kojique]", "values": [{"measurement": "%", "setting": "change vs negative control, 4320 min", "result": -42, "unit": "%"}, {"measurement": "Absorbance (475 nm)", "setting": "3 days contact, triplicate", "result": "0,107 ± 0,01"}]}]}
